In publication PMC11864979, “First-in-class ultralong-target-residence-time p38α inhibitors as a mitosis-targeted therapy for colorectal cancer” (Nature Cancer, 2025):
Read-outs that look alike come from different tables or passages of the source.

Columns and labels:
Test in all cases: selectivity profiling in a panel of 340 wild-type kinases (Reaction Biology Europe)
Assay type in all cases: binding
340 wild-type kinases [1] = target: T1, 340 wild-type kinases (Homo sapiens, UniProt Q9NYL2)
T1 construct: purchased Reaction Biology Europe
T1 sequence (Q9NYL2 whole entry): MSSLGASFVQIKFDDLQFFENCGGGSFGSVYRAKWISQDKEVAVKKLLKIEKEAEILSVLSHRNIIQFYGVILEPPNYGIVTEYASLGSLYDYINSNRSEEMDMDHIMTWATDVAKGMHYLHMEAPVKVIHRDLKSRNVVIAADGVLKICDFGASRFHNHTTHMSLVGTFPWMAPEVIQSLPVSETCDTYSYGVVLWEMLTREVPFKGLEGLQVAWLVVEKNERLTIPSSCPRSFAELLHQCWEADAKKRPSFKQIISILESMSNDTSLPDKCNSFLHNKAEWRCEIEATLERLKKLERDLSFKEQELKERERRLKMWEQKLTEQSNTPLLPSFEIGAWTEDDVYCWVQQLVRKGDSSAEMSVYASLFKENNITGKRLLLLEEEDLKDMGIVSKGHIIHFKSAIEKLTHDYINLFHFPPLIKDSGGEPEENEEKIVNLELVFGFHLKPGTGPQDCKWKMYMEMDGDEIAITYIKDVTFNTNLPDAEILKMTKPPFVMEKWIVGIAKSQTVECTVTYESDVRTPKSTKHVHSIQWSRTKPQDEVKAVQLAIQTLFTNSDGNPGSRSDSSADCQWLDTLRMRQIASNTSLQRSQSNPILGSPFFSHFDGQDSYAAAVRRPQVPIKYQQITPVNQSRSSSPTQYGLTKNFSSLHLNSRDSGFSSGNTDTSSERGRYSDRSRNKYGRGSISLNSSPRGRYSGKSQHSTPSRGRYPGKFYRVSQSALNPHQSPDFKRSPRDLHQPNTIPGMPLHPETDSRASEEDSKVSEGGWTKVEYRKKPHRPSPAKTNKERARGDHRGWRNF

340 wild-type kinases [2] = target: T2, 340 wild-type kinases (Homo sapiens, UniProt P42685)
T2 construct: purchased Reaction Biology Europe
T2 sequence (P42685 whole entry): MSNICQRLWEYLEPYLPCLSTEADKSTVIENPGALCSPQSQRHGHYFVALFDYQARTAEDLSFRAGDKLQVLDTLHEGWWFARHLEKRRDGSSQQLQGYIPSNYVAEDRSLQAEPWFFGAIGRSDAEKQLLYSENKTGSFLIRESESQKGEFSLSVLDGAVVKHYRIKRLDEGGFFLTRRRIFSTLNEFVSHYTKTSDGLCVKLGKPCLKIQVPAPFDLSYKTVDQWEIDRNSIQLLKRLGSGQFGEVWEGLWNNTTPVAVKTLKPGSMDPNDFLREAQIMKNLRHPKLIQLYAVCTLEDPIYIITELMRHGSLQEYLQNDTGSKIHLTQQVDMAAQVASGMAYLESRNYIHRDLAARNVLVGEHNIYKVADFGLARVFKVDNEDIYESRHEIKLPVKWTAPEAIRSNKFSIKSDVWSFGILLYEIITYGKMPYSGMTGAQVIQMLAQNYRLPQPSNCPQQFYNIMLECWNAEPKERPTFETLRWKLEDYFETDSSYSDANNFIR

340 wild-type kinases [3] = target: T3, 340 wild-type kinases (Homo sapiens, UniProt P09769)
T3 construct: purchased Reaction Biology Europe
T3 sequence (P09769 whole entry): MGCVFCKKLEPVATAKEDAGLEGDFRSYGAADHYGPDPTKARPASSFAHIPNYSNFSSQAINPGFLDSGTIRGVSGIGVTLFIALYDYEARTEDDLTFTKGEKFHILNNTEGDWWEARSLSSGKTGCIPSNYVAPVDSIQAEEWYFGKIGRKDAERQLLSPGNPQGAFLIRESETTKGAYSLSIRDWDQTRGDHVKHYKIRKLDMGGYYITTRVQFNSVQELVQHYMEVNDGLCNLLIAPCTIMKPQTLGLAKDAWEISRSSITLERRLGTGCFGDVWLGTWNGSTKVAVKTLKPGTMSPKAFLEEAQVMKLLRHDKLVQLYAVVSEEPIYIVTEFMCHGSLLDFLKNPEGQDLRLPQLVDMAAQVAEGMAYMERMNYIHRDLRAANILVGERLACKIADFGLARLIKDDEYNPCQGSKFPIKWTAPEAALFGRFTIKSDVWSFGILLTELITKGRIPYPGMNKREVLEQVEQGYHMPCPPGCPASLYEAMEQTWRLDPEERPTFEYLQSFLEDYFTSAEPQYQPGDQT

340 wild-type kinases [4] = target: T4, 340 wild-type kinases (Homo sapiens, UniProt Q9UEW8)
T4 construct: purchased Reaction Biology Europe

340 wild-type kinases [5] = target: T5, 340 wild-type kinases (Homo sapiens, UniProt Q13177)
T5 construct: purchased Reaction Biology Europe
T5 sequence (Q13177 whole entry): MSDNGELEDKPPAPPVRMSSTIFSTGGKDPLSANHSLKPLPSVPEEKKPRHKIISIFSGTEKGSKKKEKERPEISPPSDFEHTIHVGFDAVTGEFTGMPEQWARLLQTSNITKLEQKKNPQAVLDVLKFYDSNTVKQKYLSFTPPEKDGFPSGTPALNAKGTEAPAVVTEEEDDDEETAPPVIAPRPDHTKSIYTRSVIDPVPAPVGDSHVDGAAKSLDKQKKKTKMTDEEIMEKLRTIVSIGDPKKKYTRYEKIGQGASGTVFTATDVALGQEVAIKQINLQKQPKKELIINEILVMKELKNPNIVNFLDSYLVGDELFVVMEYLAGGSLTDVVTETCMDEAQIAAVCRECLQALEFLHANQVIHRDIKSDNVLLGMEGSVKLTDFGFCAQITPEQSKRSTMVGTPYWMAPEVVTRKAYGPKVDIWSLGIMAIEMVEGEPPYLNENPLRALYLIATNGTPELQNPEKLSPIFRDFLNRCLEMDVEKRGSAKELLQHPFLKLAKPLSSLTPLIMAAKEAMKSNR

340 wild-type kinases [6] = target: T6, 340 wild-type kinases (Homo sapiens, UniProt Q96RR4)
T6 construct: purchased Reaction Biology Europe
T6 sequence (Q96RR4 whole entry): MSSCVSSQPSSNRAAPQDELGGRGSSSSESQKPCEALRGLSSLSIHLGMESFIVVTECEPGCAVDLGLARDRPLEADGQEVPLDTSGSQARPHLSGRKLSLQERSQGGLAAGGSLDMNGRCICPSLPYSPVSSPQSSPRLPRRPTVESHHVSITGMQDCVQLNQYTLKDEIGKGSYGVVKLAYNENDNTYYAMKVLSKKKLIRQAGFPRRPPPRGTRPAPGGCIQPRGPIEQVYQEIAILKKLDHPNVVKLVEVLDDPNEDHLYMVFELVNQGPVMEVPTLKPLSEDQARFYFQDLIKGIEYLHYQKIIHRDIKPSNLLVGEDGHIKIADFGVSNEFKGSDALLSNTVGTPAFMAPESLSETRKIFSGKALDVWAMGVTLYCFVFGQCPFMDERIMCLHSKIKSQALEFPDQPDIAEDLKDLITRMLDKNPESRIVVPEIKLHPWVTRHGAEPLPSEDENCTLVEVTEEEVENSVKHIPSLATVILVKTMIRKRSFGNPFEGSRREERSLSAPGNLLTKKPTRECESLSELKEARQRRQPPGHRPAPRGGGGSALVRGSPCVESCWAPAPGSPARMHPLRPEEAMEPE

340 wild-type kinases [7] = target: T7, 340 wild-type kinases (Homo sapiens, UniProt Q8TD19)
T7 construct: purchased Reaction Biology Europe
T7 sequence (Q8TD19 1-979): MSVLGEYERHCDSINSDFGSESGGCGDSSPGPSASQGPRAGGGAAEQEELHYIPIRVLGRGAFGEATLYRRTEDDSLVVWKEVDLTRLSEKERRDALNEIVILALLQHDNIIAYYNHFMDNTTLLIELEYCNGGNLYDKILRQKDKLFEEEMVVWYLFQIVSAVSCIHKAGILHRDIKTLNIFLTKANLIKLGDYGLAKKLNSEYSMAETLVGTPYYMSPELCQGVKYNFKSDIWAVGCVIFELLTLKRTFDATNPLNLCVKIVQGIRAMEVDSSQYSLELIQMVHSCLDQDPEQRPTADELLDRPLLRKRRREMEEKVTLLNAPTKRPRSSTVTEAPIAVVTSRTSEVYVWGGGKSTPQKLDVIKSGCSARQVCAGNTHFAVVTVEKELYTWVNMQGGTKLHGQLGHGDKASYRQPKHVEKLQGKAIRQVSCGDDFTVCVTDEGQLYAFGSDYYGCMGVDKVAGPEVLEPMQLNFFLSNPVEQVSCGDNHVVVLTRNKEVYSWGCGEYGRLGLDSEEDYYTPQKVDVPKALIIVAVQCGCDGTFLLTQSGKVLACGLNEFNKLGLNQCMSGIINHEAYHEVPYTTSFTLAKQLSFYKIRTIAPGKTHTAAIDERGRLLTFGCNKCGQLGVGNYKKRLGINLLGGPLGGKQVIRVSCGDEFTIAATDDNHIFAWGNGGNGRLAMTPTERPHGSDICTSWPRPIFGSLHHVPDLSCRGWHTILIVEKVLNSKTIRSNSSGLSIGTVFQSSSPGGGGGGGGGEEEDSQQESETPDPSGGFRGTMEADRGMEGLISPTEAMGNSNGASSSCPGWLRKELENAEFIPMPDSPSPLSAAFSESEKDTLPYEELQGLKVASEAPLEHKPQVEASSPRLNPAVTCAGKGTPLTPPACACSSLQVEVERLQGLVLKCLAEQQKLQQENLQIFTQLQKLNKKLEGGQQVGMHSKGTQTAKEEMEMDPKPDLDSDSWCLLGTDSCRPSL

340 wild-type kinases [8] = target: T8, 340 wild-type kinases (Homo sapiens, UniProt P05129)
T8 construct: purchased Reaction Biology Europe

340 wild-type kinases [9] = target: T9, 340 wild-type kinases (Homo sapiens, UniProt O75582)
T9 construct: purchased Reaction Biology Europe
T9 sequence (O75582 whole entry): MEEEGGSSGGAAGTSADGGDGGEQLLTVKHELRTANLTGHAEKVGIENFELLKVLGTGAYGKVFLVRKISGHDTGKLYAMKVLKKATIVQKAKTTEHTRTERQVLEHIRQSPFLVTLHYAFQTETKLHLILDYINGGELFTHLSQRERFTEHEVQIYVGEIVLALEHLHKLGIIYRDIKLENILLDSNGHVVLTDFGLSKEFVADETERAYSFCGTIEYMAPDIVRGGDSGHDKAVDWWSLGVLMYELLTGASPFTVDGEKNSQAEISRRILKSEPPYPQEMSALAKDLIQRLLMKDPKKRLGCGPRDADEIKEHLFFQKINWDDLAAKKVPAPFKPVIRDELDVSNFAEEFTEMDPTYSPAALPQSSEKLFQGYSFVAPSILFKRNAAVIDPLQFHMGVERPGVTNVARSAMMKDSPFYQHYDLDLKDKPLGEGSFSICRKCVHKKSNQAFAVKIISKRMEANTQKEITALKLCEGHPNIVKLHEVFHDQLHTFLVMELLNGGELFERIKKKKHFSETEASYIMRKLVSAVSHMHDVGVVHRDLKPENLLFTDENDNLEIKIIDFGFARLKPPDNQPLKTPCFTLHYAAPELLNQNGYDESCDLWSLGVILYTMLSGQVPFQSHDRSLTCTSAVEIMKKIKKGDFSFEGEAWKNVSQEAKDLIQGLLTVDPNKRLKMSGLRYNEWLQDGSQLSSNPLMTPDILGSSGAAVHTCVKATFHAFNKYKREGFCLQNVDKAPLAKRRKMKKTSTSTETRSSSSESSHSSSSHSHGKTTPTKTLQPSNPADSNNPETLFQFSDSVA

340 wild-type kinases [10] = target: T10, 340 wild-type kinases (Homo sapiens, UniProt O43293)
T10 construct: purchased Reaction Biology Europe
T10 sequence (O43293 whole entry): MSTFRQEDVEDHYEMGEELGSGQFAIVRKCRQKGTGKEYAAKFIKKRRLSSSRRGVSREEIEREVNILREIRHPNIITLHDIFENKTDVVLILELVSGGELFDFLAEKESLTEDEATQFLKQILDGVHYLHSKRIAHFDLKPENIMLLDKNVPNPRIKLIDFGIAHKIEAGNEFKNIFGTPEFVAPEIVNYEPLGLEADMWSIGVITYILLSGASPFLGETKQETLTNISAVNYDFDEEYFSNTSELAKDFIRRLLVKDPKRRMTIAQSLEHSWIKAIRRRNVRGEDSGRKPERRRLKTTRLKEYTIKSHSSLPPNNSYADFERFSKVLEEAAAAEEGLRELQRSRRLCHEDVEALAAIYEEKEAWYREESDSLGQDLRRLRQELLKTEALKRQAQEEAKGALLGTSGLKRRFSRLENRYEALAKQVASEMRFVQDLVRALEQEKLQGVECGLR

## CNC(=O)c1ccc2c(c1)C(=O)c1ccc(Nc3ccc(F)c(NC(=O)C4CC4)c3)cc1CC2 [Compound 2015]
340 wild-type kinases [1]; 0.2 µM 2015, read-out: ZAK residual activity
  remaining activity at 0.2 µM: 110%
340 wild-type kinases [1]; 1 µM 2015, read-out: ZAK residual activity
  remaining activity at 1 µM: 104%
340 wild-type kinases [1]; ZAK, 0.2 µM, read-out: residual activity
  remaining activity at 0.2 µM: 110%
340 wild-type kinases [1]; ZAK, 1 µM, read-out: residual activity
  remaining activity at 1 µM: 104%
340 wild-type kinases [2]; 0.2 µM 2015, read-out: FRK residual activity
  remaining activity at 0.2 µM: 126%
340 wild-type kinases [2]; 1 µM 2015, read-out: FRK residual activity
  remaining activity at 1 µM: 110%
340 wild-type kinases [2]; FRK, 0.2 µM, read-out: residual activity
  remaining activity at 0.2 µM: 126%
340 wild-type kinases [2]; FRK, 1 µM, read-out: residual activity
  remaining activity at 1 µM: 110%
340 wild-type kinases [3]; 0.2 µM 2015, read-out: FGR residual activity
  remaining activity at 0.2 µM: 101%
340 wild-type kinases [3]; 1 µM 2015, read-out: FGR residual activity
  remaining activity at 1 µM: 102%
340 wild-type kinases [3]; FGR, 0.2 µM, read-out: residual activity
  remaining activity at 0.2 µM: 101%
340 wild-type kinases [3]; FGR, 1 µM, read-out: residual activity
  remaining activity at 1 µM: 102%
340 wild-type kinases [4]; 0.2 µM 2015, read-out: STK39 residual activity
  remaining activity at 0.2 µM: 109%
340 wild-type kinases [4]; 1 µM 2015, read-out: STK39 residual activity
  remaining activity at 1 µM: 108%
340 wild-type kinases [4]; STK39, 0.2 µM, read-out: residual activity
  remaining activity at 0.2 µM: 109%
340 wild-type kinases [4]; STK39, 1 µM, read-out: residual activity
  remaining activity at 1 µM: 108%
340 wild-type kinases [5]; 0.2 µM 2015, read-out: PAK2 residual activity
  remaining activity at 0.2 µM: 103%
340 wild-type kinases [5]; 1 µM 2015, read-out: PAK2 residual activity
  remaining activity at 1 µM: 102%
340 wild-type kinases [5]; PAK2, 0.2 µM, read-out: residual activity
  remaining activity at 0.2 µM: 103%
340 wild-type kinases [5]; PAK2, 1 µM, read-out: residual activity
  remaining activity at 1 µM: 102%
340 wild-type kinases [6]; 0.2 µM 2015, read-out: CAMKK2 residual activity
  remaining activity at 0.2 µM: 96%
340 wild-type kinases [6]; 1 µM 2015, read-out: CAMKK2 residual activity
  remaining activity at 1 µM: 96.6%
340 wild-type kinases [6]; CAMKK2, 0.2 µM, read-out: residual activity
  remaining activity at 0.2 µM: 96%
340 wild-type kinases [6]; CAMKK2, 1 µM, read-out: residual activity
  remaining activity at 1 µM: 96.6%
340 wild-type kinases [7]; 0.2 µM 2015, read-out: NEK9 residual activity
  remaining activity at 0.2 µM: 96.5%
340 wild-type kinases [7]; 1 µM 2015, read-out: NEK9 residual activity
  remaining activity at 1 µM: 93%
340 wild-type kinases [7]; NEK9, 0.2 µM, read-out: residual activity
  remaining activity at 0.2 µM: 96.5%
340 wild-type kinases [7]; NEK9, 1 µM, read-out: residual activity
  remaining activity at 1 µM: 93%
340 wild-type kinases [8]; 0.2 µM 2015, read-out: PKCgamma residual activity
  remaining activity at 0.2 µM: 109%
340 wild-type kinases [8]; 1 µM 2015, read-out: PKCgamma residual activity
  remaining activity at 1 µM: 86.6%
340 wild-type kinases [8]; PKCgamma, 0.2 µM, read-out: residual activity
  remaining activity at 0.2 µM: 109%
340 wild-type kinases [8]; PKCgamma, 1 µM, read-out: residual activity
  remaining activity at 1 µM: 86.6%
340 wild-type kinases [9]; 0.2 µM 2015, read-out: RPS6KA5 residual activity
  remaining activity at 0.2 µM: 93.6%
340 wild-type kinases [9]; RPS6KA5, 0.2 µM, read-out: residual activity
  remaining activity at 0.2 µM: 93.6%
340 wild-type kinases [9]; RPS6KA5, 1 µM, read-out: residual activity
  remaining activity at 1 µM: 90.2%
340 wild-type kinases [10]; 0.2 µM 2015, read-out: DAPK3 residual activity
  remaining activity at 0.2 µM: 110%
340 wild-type kinases [10]; 1 µM 2015, read-out: DAPK3 residual activity
  remaining activity at 1 µM: 115%
340 wild-type kinases [10]; DAPK3, 0.2 µM, read-out: residual activity
  remaining activity at 0.2 µM: 110%
340 wild-type kinases [10]; DAPK3, 1 µM, read-out: residual activity
  remaining activity at 1 µM: 115%
